Drawing on patent US8258159B2, “Inhibitors of the α2β1/GPIa-IIa integrin” (The Trustees Of The University Of Pennsylvania, priority 2005, dated 2012), this text covers IC50 for 25 compounds.

pIC50: −log10 of the molar value. *1 amine or outer side, *2 acyl side, *3 side chain or, on linkers, in order; H or OH if unused. Where a SMILES comes first, the peptide text is derived from it. Side-chain parts run from the residue outwards. [ ]: non-standard residue; d: D form. The star is where a group is joined. Cbz = O=C(OCc1ccccc1)*; Dap = NC[C@H](N)C(=O)O; CO = O=C([*:1])[*:2]; NHBn = c1ccc(CN*)cc1

This assay deals with T1, α2β1 integrin (Homo sapiens, UniProt P05556+P17301).
T1 construct: endogenous in cells; host or cells: gel-filtered human platelets of a single donor
T1 sequence (P17301 30-1181): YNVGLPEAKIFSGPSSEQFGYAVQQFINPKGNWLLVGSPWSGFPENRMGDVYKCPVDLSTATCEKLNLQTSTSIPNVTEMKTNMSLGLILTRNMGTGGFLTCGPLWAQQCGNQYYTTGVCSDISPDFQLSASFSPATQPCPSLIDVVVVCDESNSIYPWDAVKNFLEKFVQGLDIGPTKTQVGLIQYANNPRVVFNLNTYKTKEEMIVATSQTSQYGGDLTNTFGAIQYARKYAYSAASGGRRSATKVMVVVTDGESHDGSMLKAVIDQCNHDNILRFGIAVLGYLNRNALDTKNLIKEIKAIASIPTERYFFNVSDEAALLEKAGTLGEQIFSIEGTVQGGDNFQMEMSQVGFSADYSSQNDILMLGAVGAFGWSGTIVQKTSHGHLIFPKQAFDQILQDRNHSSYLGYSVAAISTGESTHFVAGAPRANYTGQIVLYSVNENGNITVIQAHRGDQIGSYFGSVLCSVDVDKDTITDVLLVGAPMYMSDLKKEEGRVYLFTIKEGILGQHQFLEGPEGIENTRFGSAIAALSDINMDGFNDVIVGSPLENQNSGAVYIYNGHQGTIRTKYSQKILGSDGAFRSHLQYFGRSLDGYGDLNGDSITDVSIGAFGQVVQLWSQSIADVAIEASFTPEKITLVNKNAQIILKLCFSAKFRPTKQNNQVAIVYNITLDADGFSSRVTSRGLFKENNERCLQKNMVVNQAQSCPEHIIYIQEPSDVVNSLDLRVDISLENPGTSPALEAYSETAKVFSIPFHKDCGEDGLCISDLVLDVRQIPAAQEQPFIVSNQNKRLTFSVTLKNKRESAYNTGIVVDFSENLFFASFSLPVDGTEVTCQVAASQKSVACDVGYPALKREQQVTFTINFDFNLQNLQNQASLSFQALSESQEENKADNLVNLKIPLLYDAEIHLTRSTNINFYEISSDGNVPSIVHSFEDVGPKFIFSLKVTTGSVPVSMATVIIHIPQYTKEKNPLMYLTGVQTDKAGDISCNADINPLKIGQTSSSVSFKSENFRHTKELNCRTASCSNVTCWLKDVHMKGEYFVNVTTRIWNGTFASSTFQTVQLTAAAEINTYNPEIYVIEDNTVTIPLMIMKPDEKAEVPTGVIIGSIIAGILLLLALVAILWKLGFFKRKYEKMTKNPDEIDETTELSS
T1 sequence (P05556 21-798): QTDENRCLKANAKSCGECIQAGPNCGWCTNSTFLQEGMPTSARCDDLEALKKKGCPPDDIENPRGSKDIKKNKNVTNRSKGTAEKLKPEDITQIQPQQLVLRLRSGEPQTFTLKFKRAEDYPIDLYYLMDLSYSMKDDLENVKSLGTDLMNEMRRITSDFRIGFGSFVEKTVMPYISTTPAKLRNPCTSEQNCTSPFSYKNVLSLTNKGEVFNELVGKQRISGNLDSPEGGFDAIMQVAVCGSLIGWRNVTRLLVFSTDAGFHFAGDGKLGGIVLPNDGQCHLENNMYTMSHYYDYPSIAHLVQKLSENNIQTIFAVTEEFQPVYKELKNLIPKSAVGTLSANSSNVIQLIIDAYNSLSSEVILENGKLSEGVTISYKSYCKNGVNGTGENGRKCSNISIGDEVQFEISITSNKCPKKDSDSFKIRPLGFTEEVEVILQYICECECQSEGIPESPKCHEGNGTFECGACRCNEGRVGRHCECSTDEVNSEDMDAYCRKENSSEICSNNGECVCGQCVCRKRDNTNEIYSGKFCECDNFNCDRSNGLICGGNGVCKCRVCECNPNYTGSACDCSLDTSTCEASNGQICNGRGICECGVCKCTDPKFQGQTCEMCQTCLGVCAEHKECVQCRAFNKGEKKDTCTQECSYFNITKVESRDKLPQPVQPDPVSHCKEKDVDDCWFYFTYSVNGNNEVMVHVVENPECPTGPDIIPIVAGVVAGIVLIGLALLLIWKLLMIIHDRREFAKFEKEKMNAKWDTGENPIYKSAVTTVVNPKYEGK
As to the kind of experiment: Platelet adhesion assay (human platelet adhesion to type I collagen). The settings on record: human platelet adhesion to type I (soluble, monomeric) collagen, static conditions; single donor; read-out: IC50. It is filed as cell-based. As to the method: The inhibitory strength of the compounds of the present disclosure was analyzed as against platelet adhesion to type I collagen. Ninety-six well flat bottom microtiter plates (Immulon 2, Dynatech Laboratories, Chantilly, Va.) were coated with collagen, purified human fibrinogen, or bovine serum albumin, each dissolved in 50 mM NaHCO3 buffer, pH 8.0, containing 150 mM NaCl as previously described. See Bennett J S, Chan C, Vilaire G, Mousa S A, DeGrado W F. Agonist-Activated αvβ3 on Platelets and Lymphocytes Binds to the Matrix Protein Osteopontin. J Biol Chem. 272, 8137-814) (1997). Unoccupied protein binding sites on the wells were blocked with 5 mg/ml bovine serum albumin dissolved in the same buffer. Human platelets were isolated from blood anticoagulated with 0.1 volume 3.8% sodium citrate by gel-filtration using a 4 mM HEPES buffer, pH 7.4, containing 135 mM NaCl, 2.7 mM KCl, 5.6 mM glucose, 3.3 mM NaH2PO4, 0.35 mg/ml bovine serum albumin and various concentrations of CaCl2 or MgCl2 according to the experiment. One hundred μl aliquots of the gel-filtered platelet suspension containing 1-2×10^8 platelets were added to the protein-coated wells in the absence or presence of a platelet agonist. Following an incubation for 30 min at 37° C. without agitation, the plates were washed 4 times with the Tris-buffered NaCl, containing 2 mM MgCl2, pH 7.4, and the number of adherent platelets measured using the colorimetric assay reported by Bellavite P, Andrioli G, Guzzo P, et al. A colorimetric method for the measurement of platelet adhesion in microtiter plates. Anal Biochem. 216, 444-450 (1994). Briefly, 150 μl of a 0.1 M citrate buffer, pH 5.4, containing 5 mM p-nitrophenyl phosphate and 0.1% Triton X-100 was added to the wells after washing. After an incubation for 60 min at room temperature in the absence of ambient light, color was developed by the addition of 100 μl of 2N NaOH and, using EL800 Universal Microplate Reader (Bio-Tek Instruments, Inc., Winooski, Vt.), read in microtiter plate reader at 405 nm.
The potencies of the compounds of the present disclosure were determined by testing the ability of a range of concentrations of each compound to inhibit human platelet adhesion to soluble collagen under static conditions. Owing to the fact that soluble collagen is a specific ligand for α2β1 integrin, this is an accepted method of assessing α2β1 inhibition on platelets.
IC50 values were determined by using the platelets of a single donor. In cases where multiple assays were performed, the reported results reflect the average IC50 value derived from the separate assays.
In the case of `O=C(NCc1ccccc1)NC[C@H](NC(=O)[C@@H]1C=CCN1S(=O)(=O)c1ccccc1)C(=O)O` (stereo in doubt) [Compound 52, 2-[(1-Benzenesulfonyl-2,5-dihydro-1H-pyrrole-2-carbonyl)-amino]-3-(3-benzyl-ureido)-propionic acid], the pIC50 was 6.84.

For the compound `CC(C)(C)OC(=O)NC[C@H](NC(=O)[C@@H]1CCCN1S(=O)(=O)c1ccc([N+](=O)[O-])cc1)C(=O)O` [Compound 1, 3-tert-Butoxycarbonylamino-2-{[1-(4-nitro-benzenesulfonyl)-pyrrolidine-2-carbonyl]-amino}-propionic acid], the negative logarithm of the IC50 (pIC50) was 5.58.

Turning to `O=C(NC[C@H](NC(=O)[C@@H]1CCCN1S(=O)(=O)c1ccc([N+](=O)[O-])cc1)C(=O)O)OCc1ccccc1` [Compound 2, 3-Benzyloxycarbonylamino-2-{[1-(4-nitro-benzenesulfonyl)-pyrrolidine-2-carbonyl]-amino}-propionic acid], the pIC50 was 5.64. As to `O=C(NC[C@H](NC(=O)[C@@H]1CCCN1S(=O)(=O)c1ccc([N+](=O)[O-])cc1)C(=O)O)c1ccccc1` [Compound 3, 3-Benzoylamino-2-{[1-(4-nitro-benzenesulfonyl)-pyrrolidine-2-carbony]-amino}-propionic acid], the pIC50 was 5.64. The value for `O=C(CCc1ccccc1)NC[C@H](NC(=O)[C@@H]1CCCN1S(=O)(=O)c1ccc([N+](=O)[O-])cc1)C(=O)O` [Compound 4, 2-{[1-(4-Nitro-benzenesulfonyl)-pyrrolidine-2-carbonyl]-amino}-3-(3-phenyl-propionylamino)-propionic acid] was 5.32. For the compound `O=C(NCc1ccccc1)NC[C@H](NC(=O)[C@@H]1CCCN1S(=O)(=O)c1ccc([N+](=O)[O-])cc1)C(=O)O` [Compound 5, 3-(3-Benzyl-ureido)-2-{[1-(4-nitro-benzenesulfonyl)-pyrrolidine-2-carbonyl]-amino}-propionic acid], the pIC50 is 6.98.

As for `CC(C)(C)OC(=O)CC[C@H](NC(=O)[C@@H]1CCCN1S(=O)(=O)c1ccc([N+](=O)[O-])cc1)C(=O)O` [Compound 6, 2-{[1-(4-Nitro-benzenesulfonyl)-pyrrolidine-2-carbonyl]-amino}-pentanedioic acid 5-tert-butyl ester], the pIC50 is 4.65.

Turning to `O=C(NCc1ccccc1Cl)NC[C@H](NC(=O)[C@@H]1CCCN1S(=O)(=O)c1ccc([N+](=O)[O-])cc1)C(=O)O` [Compound 7, 3-[3-(2-Chloro-benzyl)-ureido]-2-{[1-(4-nitro-benzenesulfonyl)-pyrrolidine-2-carbonyl]-amino}-propionic acid], the pIC50 is 6.01. `O=C(NCc1ccc(Br)cc1)NC[C@H](NC(=O)[C@@H]1CCCN1S(=O)(=O)c1ccc([N+](=O)[O-])cc1)C(=O)O` [Compound 8, 3-[3-(4-Bromo-benzyl)-ureido]-2-{[1-(4-nitro-benzenesulfonyl)-pyrrolidine-2-carbonyl]-amino}-propionic acid]: the pIC50 is 5.79. Take `O=C(NC[C@H](NC(=O)[C@@H]1CCCN1S(=O)(=O)c1ccc([N+](=O)[O-])cc1)C(=O)O)Nc1ccccc1` [Compound 9, 2-{[1-(4-Nitro-benzenesulfonyl)-pyrrolidine-2-carbonyl]-amino}-3-(3-phenyl-ureido)-propionic acid]: the pIC50 is 5.52. Under `O=C(NC[C@H](NC(=O)[C@@H]1CCCN1S(=O)(=O)c1ccc([N+](=O)[O-])cc1)C(=O)O)Nc1ccc([N+](=O)[O-])cc1` [Compound 10, 2-{[1-(4-Nitro-benzenesulfonyl)-pyrrolidine-2-carbonyl]-amino}-3-[3-(4-nitro-phenyl)-ureido]-propionic acid] stands 5.34; under `O=C(NC[C@H](NC(=O)[C@@H]1CCCN1S(=O)(=O)c1ccc([N+](=O)[O-])cc1)C(=O)O)Nc1ccc(-c2ccccc2)cc1` [Compound 11, 3-(3-Biphenyl-4-yl-ureido)-2-{[1-(4-nitro-benzenesulfonyl)-pyrrolidine-2-carbonyl]-amino}-propionic acid], 5.30; under `COc1ccc(CNC(=O)NC[C@H](NC(=O)[C@@H]2CCCN2S(=O)(=O)c2ccc([N+](=O)[O-])cc2)C(=O)O)cc1` [Compound 12, 3-[3-(4-Methoxy-benzyl)-ureido]-2-{[1-(4-nitro-benzenesulfonyl)-pyrrolidine-2-carbonyl]-amino}-propionic acid], 6.09.

For the compound `COc1ccccc1CNC(=O)NC[C@H](NC(=O)[C@@H]1CCCN1S(=O)(=O)c1ccc([N+](=O)[O-])cc1)C(=O)O` [Compound 13, 3-[3-(2-Methoxy-benzyl)-ureido]-2-{[1-(4-nitro-benzenesulfonyl)-pyrrolidine-2-carbonyl]-amino}-propionic acid], the pIC50 is 5.82. For `COc1cccc(CNC(=O)NC[C@H](NC(=O)[C@@H]2CCCN2S(=O)(=O)c2ccc([N+](=O)[O-])cc2)C(=O)O)c1` [Compound 14, 3-[3-(3-Methoxy-benzyl)-ureido]-2-{[1-(4-nitro-benzenesulfonyl)-pyrrolidine-2-carbonyl]-amino}-propionic acid], the pIC50 was 6.10. Turning to `O=C(NCc1ccc(-c2ccccc2)cc1)NC[C@H](NC(=O)[C@@H]1CCCN1S(=O)(=O)c1ccc([N+](=O)[O-])cc1)C(=O)O` [Compound 15, 3-(3-Biphenyl-4-ylmethyl-ureido)-2-{[1-(4-nitro-benzenesulfonyl)-pyrrolidine-2-carbonyl]-amino}-propionic acid], the pIC50 was 5.39.

Turning to `CCCNC(=O)NC[C@H](NC(=O)[C@@H]1CCCN1S(=O)(=O)c1ccc([N+](=O)[O-])cc1)C(=O)O` [Compound 16, 2-{[1-(4-Nitro-benzenesulfonyl)-pyrrolidine-2-carbonyl]-amino}-3-(3-propyl-ureido)-propionic acid], the pIC50 is 5.44. For the compound `CC(C)(C)NC(=O)NC[C@H](NC(=O)[C@@H]1CCCN1S(=O)(=O)c1ccc([N+](=O)[O-])cc1)C(=O)O` [Compound 17, 3-(3-tert-Butyl-ureido)-2-{[1-(4-nitro-benzenesulfonyl)-pyrrolidine-2-carbonyl]-amino}-propionic acid], the pIC50 was 5.77. Regarding `CC(C)(C)OC(=O)Nc1ccc(CNC(=O)NC[C@H](NC(=O)[C@@H]2CCCN2S(=O)(=O)c2ccc([N+](=O)[O-])cc2)C(=O)O)cc1` [Compound 18, 3-[3-(4-tert-Butoxycarbonylamino-benzyl)-ureido]-2-{[1-(4-nitro-benzenesulfonyl)-pyrrolidine-2-carbonyl]-amino}-propionic acid], the pIC50 was 5.75. Consider `Nc1ccc(CNC(=O)NC[C@H](NC(=O)[C@@H]2CCCN2S(=O)(=O)c2ccc([N+](=O)[O-])cc2)C(=O)O)cc1` [Compound 19, 3-[3-(4-Amino-benzyl)-ureido]-2-{[1-(4-nitro-benzenesulfonyl)-pyrrolidine-2-carbonyl]-amino}-propionic acid], for which the negative-log IC50 (pIC50) was 6.34.

Take `CC(=O)Nc1ccc(S(=O)(=O)N2CCC[C@H]2C(=O)N[C@@H](CNC(=O)NCc2ccccc2)C(=O)O)cc1` [Compound 21, 2-{[1-(4-Acetylamino-benzenesulfonyl)-pyrrolidine-2-carbonyl]-amino}-3-(3-benzyl-ureido)-propionic acid]: the negative logarithm of the IC50 (pIC50) is 6.88. With `O=C(NCc1ccccc1)NC[C@H](NC(=O)[C@@H]1CCCN1S(=O)(=O)Cc1ccccc1)C(=O)O` [Compound 22, 3-(3-Benzyl-ureido)-2-[(1-phenylmethanesulfonyl-pyrrolidine-2-carbonyl)-amino]-propionic acid], the negative logarithm of the IC50 (pIC50) is 4.93.

As to `O=C(NCc1ccccc1)NC[C@H](NC(=O)[C@@H]1CCCN1C(=O)OCc1ccccc1)C(=O)O` [Compound 23, 2-[2-(3-Benzyl-ureido)-1-carboxy-ethylcarbarmoyl]-pyrrolidine-1-carboxylic acid benzyl ester] (Cbz-Pro-[Dap]([CO-NHBn])-OH), the pIC50 was 4.55.

As to `O=C(NCc1ccccc1)NC[C@H](NC(=O)[C@@H]1CCCN1S(=O)(=O)c1ccc(-c2ccccc2)cc1)C(=O)O` [Compound 24, 3-(3-Benzyl-ureido)-2-{[1-(biphenyl-4-sulfonyl)-pyrrolidine-2-carbonyl]-amino}-propionic acid], the pIC50 was 6.54. Consider `Nc1ccc(S(=O)(=O)N2CCC[C@H]2C(=O)N[C@H](CNC(=O)NCc2ccccc2)C(=O)O)cc1` [Compound 25, 2-{[1-(4-Amino-benzenesulfonyl)-pyrrolidine-2-carbonyl]-amino}-3-(3-benzyl-ureido)-propionic acid], for which the negative logarithm of the IC50 (pIC50) was 5.69.
